For four molecules, mass density and speed of sound results are on record in the NIST ThermoML archive (doi:10.1007/s10765-009-0593-3).

Numbers after ± are expanded uncertainties.

The conditions of the series: 101.33 kPa, Liquid; for speed of sound: Pulse-echo method.

As for `CCCCN` [1-butanamine], the mass density (288.15 K) was 742.865 ± 0.56 kg/m3; the mass density (293.15 K) stood at 738.096 ± 0.57 kg/m3; the mass density (298.15 K) amounted to 733.301 ± 0.58 kg/m3; the mass density (303.15 K) is on record as 728.477 ± 0.58 kg/m3; the mass density (308.15 K) is reported as 723.625 ± 0.59 kg/m3. The speed of sound (288.15 K) was 1296.1 ± 0.83 m/s; the speed of sound (293.15 K) is reported as 1273.6 ± 0.82 m/s; the speed of sound (298.15 K) was found to be 1250 ± 0.82 m/s; the speed of sound (303.15 K) stood at 1228.9 ± 0.81 m/s; the speed of sound (308.15 K) was found to be 1205.7 ± 0.8 m/s.
As for `CCCOCC(C)OCC(C)O` (stereo not given) [1-(1-methyl-2-propoxyethoxy)-2-propanol], the mass density (288.15 K) was found to be 924.348 ± 0.29 kg/m3; the mass density (293.15 K) is listed as 919.954 ± 0.29 kg/m3; the mass density (298.15 K) worked out at 915.522 ± 0.3 kg/m3; the mass density (303.15 K) was found to be 911.078 ± 0.31 kg/m3; the mass density (308.15 K) was 906.642 ± 0.31 kg/m3. The speed of sound turned out to be 1306.3 ± 0.83 m/s (288.15 K); 1287.9 ± 0.83 m/s (293.15 K); 1269.9 ± 0.82 m/s (298.15 K); 1251.7 ± 0.82 m/s (303.15 K); 1234.1 ± 0.81 m/s (308.15 K).
`CCCCN(CCCC)CCCC` [tributylamine]: the mass density is, setting by setting: (288.15 K) 781.336 ± 0.5 kg/m3; (293.15 K) 777.632 ± 0.51 kg/m3; (298.15 K) 773.913 ± 0.51 kg/m3; (303.15 K) 770.183 ± 0.52 kg/m3; (308.15 K) 766.44 ± 0.53 kg/m3. The speed of sound is, setting by setting: (288.15 K) 1285 ± 0.83 m/s; (293.15 K) 1266.4 ± 0.82 m/s; (298.15 K) 1247.6 ± 0.81 m/s; (303.15 K) 1229 ± 0.81 m/s; (308.15 K) 1210.4 ± 0.8 m/s.
Turning to `CCCCNCCCC` [dibutylamine], the mass density (288.15 K) amounted to 766.115 ± 0.53 kg/m3; the mass density (293.15 K) is reported as 762.022 ± 0.53 kg/m3; the mass density (298.15 K) stood at 757.784 ± 0.54 kg/m3; the mass density (303.15 K) came out at 752.284 ± 0.55 kg/m3; the mass density (308.15 K) was 748.17 ± 0.55 kg/m3. Further, the speed of sound (288.15 K) was found to be 1289.2 ± 0.83 m/s; the speed of sound (293.15 K) amounted to 1269.5 ± 0.82 m/s; the speed of sound (298.15 K) stood at 1246.7 ± 0.81 m/s; the speed of sound (303.15 K) came to 1226.7 ± 0.81 m/s; the speed of sound (308.15 K) came to 1207 ± 0.8 m/s.
